Measurements reported in US5696112A, “Fused heterocyclic azepines as vasopressin antagonists” (American Cyanamid Company, priority 1995, dated 1997).

Columns and labels:
[1] = target: T1, Rat Hepatic V1 Receptors (vasopressin V1) (Rattus norvegicus, UniProt P30560); experiment: Binding Assay to Rat Hepatic V1 Receptors; settings: rat hepatic V1, [3H]vasopressin
T1 construct: Rat liver plasma membranes expressing the vasopressin V1 receptor subtypes are isolated by sucrose density gradient; from tissue; host or cells: rat liver plasma membranes
Description: Binding Assay to Rat Hepatic V1 Receptors
Rat liver plasma membranes expressing the vasopressin V1 receptor subtypes are isolated by sucrose density gradient according to the method described by Lesko et al., (1973). These membranes are quickly suspended in 50.0 mMTris.HCl buffer, pH 7.4, containing 0.2% bovine serum albumin (BSA) and 0.1 mM phenylmethylsulfonylfluoride (PMSF) and kept frozen at -70° C. until used in subsequent binding experiments. For binding experiments, the following is added to the wells of a ninety-six well format microtiter plate: 100 μl of 100.0 mM Tris.HCl buffer containing 10.0 mM MgCl2, 0.2% heat inactivated BSA and a mixture of protease inhibitors: leupeptin, 1.0 mg %; aprotinin, 1.0 mg %, 1,10-phenanthroline,2.0 mg %; trypsin inhibitor, 10.0 mg % and 0.1 mM PMSF, 20.0 μl of [phenylalanyl-3,4,5-^3 H]vasopressin (S.A. 45.1 Ci/mmole) at 0.8 nM, and the reaction initiated by the addition of 80 μl of tissue membranes containing 20 μg of tissue protein. The plates are kept undisturbed on the bench top at room temperature for 120 min. to reach equilibrium. Nonspecific samples are assayed in the presence of 0.1 μM of the unlabeled antagonist phenylalanylvasopressin, added in 20.0 μl volume to a final incubation volume of 200 μl. Upon completion of binding, the content of each well is filtered off, using a Brandel® cell Harvester (Gaithersburg, Md.). The radioactivity trapped on the filter disk by the ligand-receptor complex is assessed by liquid scintillation counting in a Packard LS Counter, with an efficiency of 65% for tritium. The data are analyzed for IC50 values by the LUNDON-2 program for competition (LUNDON SOFTWARE, OH).

[2] = target: T2, Rat Kidney Medullary V2 Receptors (vasopressin V2) (Rattus norvegicus, UniProt Q00788); experiment: Binding Assay to Rat Kidney Medullary V2 Receptors; settings: rat kidney medullary V2, [3H]Arg8-vasopressin
T2 construct: Medullary tissues from rat kidneys are dissected out; from tissue; host or cells: rat kidney medulla membranes
Description: Binding Assay to Rat Kidney Medullary V2 Receptors
Medullary tissues from rat kidneys are dissected out, cut into small pieces and let soak in a […] sodium chloride solution containing 1.0 mM EDTA with many changes of the liquid phase, until the solution is clear of blood. The tissue is homogenized in a 0.25M sucrose solution containing 1.0 mM EDTA and 0.1 mM PMSF using a Potter-Elvehjem homogenizer with a teflon pestle. The homogenate is filtered through several layers (4 layers) of cheese cloth. The filtrate is rehomogenized using a dounce homogenizer, with a tight fitting pestle. The final homogenate is contrifuged at 1500×g for 15 min. The nuclear pellet is discarded and the supernatant fluid recentrifuged at 40,000×g for 30 min. The resulting pellet formed contains a dark inner part with the exterior, slightly pink. The pink outer part is suspended in a small amount of 50.0 mMTris.HCl buffer, pH 7.4. The protein content is determined by the Lowry's method (Lowry et al, J. Biol. Chem., 1953). The membrane suspension is stored at -70° C., in 50.0 mMTris.HCl, containing 0.2% inactivated BSA and 0.1 mM PMSF in aliquots of 1.0 ml containing 10.0 mg protein per ml of suspension until use in subsequent binding experiments.
For binding experiments, the following is added in μl volume to wells of a 96 well format of a microtiter plate: 100.0 μl of 100.0 mM Tris.HCl buffer containing 0.2% heat inactivated BSA, 10.0 mM MgCl2 and a mixture of protease inhibitors: leupeptin, 1.0 mg %; aprotinin, 1.0 mg %; 1,10-phenanthroline, 2.0 mg %; trypsin inhibitor, 10.0 mg % and 0.1 mM PMSF, 20.0 μl of [^3 H]Arginine^8, vasopressin (S.A. 75.0 Ci/mmole) at 0.8 nM and the reaction initiated by the addition of 80.0 μl of tissue membranes (200.0 μg tissue protein). The plates are left undisturbed on the bench top for 120 min. to reach equilibrium. Non-specific binding is assessed in the presence of 1.0 μM of unlabeled ligand, added in 20 μl volume. For test compounds, these are solubilized in 50% dimethylsulfoxide (DMSO) and added in 20.0 μl volume to a final incubation volume of 200 μl. Upon completion of binding, the content of each well is filtered off, using a Brandel® cell Harvester (Gaithersburg, Md.). The radioactivity trapped on the filter disk by the ligand-receptor complex is assessed by liquid scintillation counting in a Packard LS Counter, with an efficiency of 65% for tritium. The data are analyzed for IC50 values by the LUNDON-2 program for competition (LUNDON SOFTWARE, OH).

Vasopressin V2 = Vasopressin V2 Antagonist Activity in Conscious Hydrated Rats; type: in vivo, rat; settings: AVP 0.4 μg/kg i.p.
Description: Vasopressin V2 Antagonist Activity in conscious Hydrated Rats Conscious hydrated rats are treated with compounds under study from 0.1 to 100 mg/kg orally or vehicle. Two to four rats are used for each compound. One hour later, arginine vasopressin (AVP, antidiuretic hormone, ADH) dissolved in peanut oil is administered at 0.4 μg/kg intraperitoneally. Two rats in each test would not receive arginine vasopressin but only the vehicle (peanut oil) to serve as water-loading control. Twenty minutes later each rat is given 30 mL/kg of deionized water orally by gavage and is placed individually in a metabolic cage equipped with a funnel and a graduated glass cylinder to collect urine for four hours. Urine volume is measured and osmolality analyzed by use of a Fiske One-Ten osmometer (Fiske Assoc., Norwood, Mass. USA). Urinary sodium, potassium, and chloride are analyzed by use of ion-specific electrodes in a Beckman E3 (Electrolyte 3) Analyzer. In the following results, […] and […] osmolality relative to AVP-control indicates activity.

oxytocin receptors = target: T3, oxytocin receptors (Rattus norvegicus, UniProt P70536); experiment: Oxytocin Receptor Binding; set-up: species or system Sprague-Dawley rats
T3 construct: The uteri are dissected out, cleaned of fat and connective tissues; from tissue; host or cells: uterus membranes of DES-treated female Sprague-Dawley rats
T3 sequence (P70536 1-388): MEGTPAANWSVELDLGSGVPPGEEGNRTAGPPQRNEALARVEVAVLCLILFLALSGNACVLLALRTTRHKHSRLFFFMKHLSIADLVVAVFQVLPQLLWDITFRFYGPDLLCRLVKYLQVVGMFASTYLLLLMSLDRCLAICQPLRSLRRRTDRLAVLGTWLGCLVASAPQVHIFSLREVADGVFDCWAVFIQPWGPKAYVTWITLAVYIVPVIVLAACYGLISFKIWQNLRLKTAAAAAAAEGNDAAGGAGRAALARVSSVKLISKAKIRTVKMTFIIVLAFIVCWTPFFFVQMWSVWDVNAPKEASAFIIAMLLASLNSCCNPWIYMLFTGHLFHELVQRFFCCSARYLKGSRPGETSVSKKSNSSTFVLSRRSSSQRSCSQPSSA
Description: Oxytocin Receptor Binding
Female Sprague-Dawley rats weighing approximately 200-250 g are injected intramuscularly (i.m.) with 0.3 mg/kg of body weight of diethylstilbestrol (DES). The rats are sacrificed 18 hours later under pentobarbital anesthesia. The uteri are dissected out, cleaned of fat and connective tissues and rinsed in 50 ml of normal saline. The tissue pooled from six rats is homogenized in 50 ml of 0.01 mMTris.HCl, containing 0.5 mM dithiothreitol and 1.0 mM EDTA, adjusted to pH 7.4, using a polytron at setting 6 with three passes of 10 sec each. The homogenate is passed through two (2) layers of cheesecloth and the filtrate centrifuged at 1000×g for 10 min. The clear supernatant is removed and recentrifuged at 165,000×g for 30 min. The resulting pellet containing the oxytocin receptors is resuspended in 50.0 mM Tris.HCl containing 5.0 mM MgCl2 at pH 7.4, to give a protein concentration of 2.5 mg/ml of tissue suspension. This preparation is used in subsequent binding assays with [^3 H]Oxytocin.
Binding of 3,5-[^3 H]Oxytocin ([^3 H]OT) to its receptors is done in microtiter plates using [^3 H]OT, at various concentrations, in an assay buffer of 50.0 mM Tris.HCl, pH 7.4 and containing 5.0 mM MgCl2, and a mixture of protease inhibitors: BSA, 0.1 mg; aprotinin, 1.0 mg; 1,10-phenanthroline, 2.0 mg; […], 10.0 mg; and PMSF, 0.3 mg per 100 ml of buffer solution. Nonspecific binding is determined in the presence of 1.0 uM unlabeled OT. The binding reaction is terminated after 60 min., at 22° C., by rapid filtration through glass fiber filters using a Brandel® cell harvester (Biomedical Research and Development Laboratories, Inc., Gaithersburg, Md.). Competition experiments are conducted at equilibrium using 1.0 nM [^3 H]OT and varying the concentration of the displacing agents. The concentrations of agent displacing 50% of [^3 H]OT at its sites (IC50) are calculated by a computer assisted LUNDON-2 program (LUNDON SOFTWARE INC., Ohio, USA).

T1 sequence (P30560 whole entry): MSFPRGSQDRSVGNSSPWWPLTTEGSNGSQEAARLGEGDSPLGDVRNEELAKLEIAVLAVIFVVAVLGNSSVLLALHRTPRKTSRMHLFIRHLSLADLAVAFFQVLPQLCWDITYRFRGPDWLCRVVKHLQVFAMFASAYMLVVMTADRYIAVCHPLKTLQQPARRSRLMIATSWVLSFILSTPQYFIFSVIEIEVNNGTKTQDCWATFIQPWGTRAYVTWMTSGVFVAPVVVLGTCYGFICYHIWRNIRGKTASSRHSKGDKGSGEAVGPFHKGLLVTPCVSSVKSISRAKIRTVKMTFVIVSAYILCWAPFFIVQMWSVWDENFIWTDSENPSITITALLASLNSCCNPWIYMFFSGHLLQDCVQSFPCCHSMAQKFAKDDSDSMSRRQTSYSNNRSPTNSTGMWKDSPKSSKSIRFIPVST
T2 sequence (Q00788 whole entry): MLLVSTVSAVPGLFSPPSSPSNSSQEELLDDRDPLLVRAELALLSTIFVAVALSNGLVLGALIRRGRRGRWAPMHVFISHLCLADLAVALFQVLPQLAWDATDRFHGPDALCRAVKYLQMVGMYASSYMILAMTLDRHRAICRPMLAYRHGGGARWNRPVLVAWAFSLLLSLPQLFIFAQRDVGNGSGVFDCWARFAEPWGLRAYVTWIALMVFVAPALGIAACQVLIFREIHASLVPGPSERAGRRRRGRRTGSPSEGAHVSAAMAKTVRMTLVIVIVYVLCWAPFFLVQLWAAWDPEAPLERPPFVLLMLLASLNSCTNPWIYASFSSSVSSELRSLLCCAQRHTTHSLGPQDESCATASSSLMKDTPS

IC50 [1]	IC50 [2]	Structure (SMILES)	also measured
8 µM	0.37 µM	O=C(Nc1ccc(C(=O)N2CCCCc3sccc32)cc1)c1ccc2[nH]ccc2c1 [Example 180]	
0.26 µM	0.036 µM	O=C(Cc1ccccc1)Nc1ccc(C(=O)N2CCCCc3sccc32)cc1 [Example 12, N-[4-[(5,6,7,8-tetrahydro-4H-thieno[3,2-b]azepin-4-yl)carbonyl]phenyl]benzeneacetamide]	
0.23 µM	0.052 µM	Cc1cccc(C(=O)Nc2ccc(C(=O)N3CCCCc4sccc43)cc2)c1C [Example 10, N-[4-[(5,6,7,8-Tetrahydro-4H-thieno[3,2-b]azepin-4-yl)carbonyl]phenyl]2,3-dimethylbenzamide]	
0.2 µM	0.12 µM	Cc1ccc(C)c(C(=O)Nc2ccc(C(=O)N3CCCCc4sccc43)cc2)c1 [Example 8, N-[4-[(5,6,7,8-Tetrahydro-4H-thieno[3,2-b]azepin-4-yl)carbonyl]phenyl]2,5-dimethylbenzamide]	
0.28 µM	0.06 µM	Cc1ccc(C(=O)Nc2ccc(C(=O)N3CCCCc4sccc43)cc2)c(C)c1 [Example 11, N-[4-[(5,6,7,8-Tetrahydro-4H-thieno[3,2-b]azepin-4-yl)carbonyl]phenyl]2,4-dimethylbenzamide]	Osmolality (Vasopressin V2; 30 mg/kg P.O.): 1420 mOsm/kg; Urine Volume (Vasopressin V2; 30 mg/kg P.O.): 5 ml/4 hours
	21.4 µM	CC(C)(C)c1ccc(C(=O)Nc2ccc(C(=O)N3CCCCc4sccc43)cc2)cc1 [Example 5, N-[4-[(5,6,7,8-Tetrahydro-4H-thieno[3,2-b]azepin-4-yl)carbonyl]phenyl]4-tert-butylbenzamide]	
0.059 µM	0.138 µM	Cc1ccsc1C(=O)Nc1ccc(C(=O)N2CCCCc3sccc32)cc1 [Example 7, N-[4-[(5,6,7,8-Tetrahydro-4H-thieno[3,2-b]azepin-4-yl)carbonyl]phenyl]3-methyl-2-thiophenecarboxamide]	Urine Volume (Vasopressin V2; 100 mg/kg P.O.): 6.2 ml/4 hours
1.3 µM	5.5 µM	O=C(Nc1ccc(C(=O)N2CCCCc3sccc32)cc1)c1coc2c1C(=O)CCC2 [Example 179]	
		CCCCOc1ccc(C(=O)N2CCCCc3sccc32)cc1 [Example 233, 4-[4-(n-Butyloxy)benzoyl]-5,6,7,8-tetrahydro-4H-thieno[3,2-b]azepine]	IC50 (oxytocin receptors; 1.0 nM [3H]oxytocin): 0.95 µM; inhibition at 10 µM (oxytocin receptors; 10 μM): 93%
50 µM	3.4 µM	CCCCc1ccc(C(=O)Nc2ccc(C(=O)N3CCCCc4sccc43)cc2)cc1 [Example 6, N-[4-[(5,6,7,8-Tetrahydro-4H-thieno[3,2-b]azepin-4-yl)carbonyl]phenyl]4-(n-butyl)benzamide]	
1.65 µM	0.44 µM	O=C(Nc1ccc(C(=O)N2CCCCc3sccc32)cc1)c1ccc(Cl)c(Cl)c1 [Example 1, N-[4-[(5,6,7,8-Tetrahydro-4H-thieno[3,2-b]azepin-4-yl)carbonyl]phenyl]-3,4-dichlorobenzamide]	
0.077 µM	0.023 µM	Cc1ccccc1C(=O)Nc1ccc(C(=O)N2CCCCc3sccc32)cc1 [Example 3, N-[4-[(5,6,7,8-Tetrahydro-4H-thieno[3,2-b]azepin-4-yl)carbonyl]phenyl]-2-methylbenzamide]	Osmolality (Vasopressin V2; 100 mg/kg P.O.): 1081 mOsm/kg; Urine Volume (Vasopressin V2; 100 mg/kg P.O.): 10 ml/4 hours
0.4 µM	1.8 µM	O=C(Nc1ccc(C(=O)N2CCCCc3sccc32)cc1)c1ccco1 [Example 4, N-[4-[(5,6,7,8-Tetrahydro-4H-thieno[3,2-b]azepin-4-yl)carbonyl]phenyl]2-furanecarboxamide]	
